In patent publication US9045461B2, “Phenyl-heteroaryl derivatives and methods of use thereof” (TransTech Pharma, LLC, priority 2010, dated 2015):
Counter-ions that a name gives are not always drawn.

Key:
[1] = target: T1, sRAGE binding to S100b (Homo sapiens, UniProt Q15109); assay: RAGE binding assay (ELISA), S100b as the RAGE ligand; details: compounds tested in hydrochloride salt form, concentration at which 50% signal has been inhibited
T1 construct: extracellular domain can be isolated by proteolysis of RAGE to generate soluble RAGE (sRAGE) comprised of the V and C domains
Protocol: (§1) The following assay method may be used to identify compounds of Formula (I) or pharmaceutically acceptable salts thereof which are useful as inhibitors of binding of physiological RAGE ligands, such as S100b and β-amyloid, to RAGE.
(§2) S100b, β-amyloid, or CML (500 ng/100 μL/well) in 100 mM sodium bicarbonate/sodium carbonate buffer (pH 9.8) is loaded onto the wells of a NUNC Maxisorp flat bottom 96-well microtitre plate. The plate is incubated at 4° C. overnight. The wells are aspirated and treated with 50 mM imidazole buffer saline (pH 7.2) (with 5 mM CaCl2/MgCl2) containing 1% bovine serum albumin (BSA) (300 μL/well) for 1 h at RT. The wells are aspirated.
(§3) Test compounds are dissolved in nanopure water (concentration: 10-100 μM). DMSO may be used as co-solvent. 25 μL of test compound solution in 4% DMSO is added, along with 75 μL sRAGE (6 nM FAC) to each well and samples are incubated for 1 h at 37° C. The wells are washed several times with 155 mM NaCl pH 7.2 buffer saline and are soaked for several seconds between each wash.
(§4) Non-radioactive detection is performed by adding:
(§5) 10 μL Biotinylated goat F(ab′)2 Anti-mouse IgG. (8.0×10-4 mg/mL, FAC), 5 μL Alk-phos-Streptavidin (3×10-3 mg/mL FAC), 0.42 μL per 5 mL Monoclonal antibody for sRAGE (FAC 6.0×10-3 mg/mL) to 5 mL 50 mM imidazole buffer saline (pH 7.2) containing 0.2% bovine serum albumin and 5 mM CaCl2. The mixture is incubated for 30 minutes at RT.
(§6) 100 μL of complex is added to each well and incubation is allowed to proceed at rt for 1 h. Wells are washed several times with wash buffer and soaked several seconds between each wash. 100 μL 1 mg/mL (pNPP) in 1 M diethanolamine (pH adjusted to 9.8 with HCl) is added. Color is allowed to develop in the dark for 30 min to 1 h at rt. The reaction is quenched with 10 μL of stop solution (0.5-1.0 N NaOH in 50% ethanol) and the absorbance is measured spectrophotometrically with a microplate reader at 405 nm.
(§7) The IC50 (μM) value in the ELISA assay represents the concentration of compound at which 50% signal has been inhibited.

[2] = target: T2, sRAGE binding to β-amyloid (Homo sapiens, UniProt Q15109); assay: RAGE binding assay (ELISA), β-amyloid as the RAGE ligand; details: compounds tested in hydrochloride salt form, concentration at which 50% signal has been inhibited
T2 construct: extracellular domain can be isolated by proteolysis of RAGE to generate soluble RAGE (sRAGE) comprised of the V and C domains
Protocol: as §1, §2, §3, §4, §5, §6, §7

T1 sequence (Q15109 23-342 limits assumed): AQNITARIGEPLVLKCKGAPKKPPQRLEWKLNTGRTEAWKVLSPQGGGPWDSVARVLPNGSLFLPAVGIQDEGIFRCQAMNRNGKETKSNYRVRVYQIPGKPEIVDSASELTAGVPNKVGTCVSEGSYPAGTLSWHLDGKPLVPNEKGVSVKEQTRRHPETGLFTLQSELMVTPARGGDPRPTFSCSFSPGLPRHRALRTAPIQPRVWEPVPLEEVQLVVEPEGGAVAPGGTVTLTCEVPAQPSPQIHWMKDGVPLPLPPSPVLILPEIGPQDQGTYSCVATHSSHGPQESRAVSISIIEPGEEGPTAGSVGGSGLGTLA
T2 sequence (Q15109 23-342 limits assumed): as above

SMILES	IC50 [1] [nM]	IC50 [2] [nM]
CCCCc1nnc(OCC2CCN(C)C2)cc1-c1ccc(OCc2ccccc2)cc1 (stereo not drawn) [Example 10, 4-(4-Benzyloxy-phenyl)-3-butyl-6-(1-methyl-pyrrolidin-3-ylmethoxy)-pyridazine dihydrochloride]	1520	1630
CCCCc1nnc(OCC2(O)CCN(C)CC2)cc1-c1ccc(OCc2ccccc2)cc1 [Example 11, 4-[5-(4-Benzyloxy-phenyl)-6-butyl-pyridazin-3-yloxymethyl]-1-methyl-piperidin-4-ol dihydrochloride]	5740	3230
CCCc1nnc(OC2CCN(C)CC2)cc1-c1ccc(OCc2ccccc2)cc1 [Example 12, 4-(4-Benzyloxy-phenyl)-6-(1-methyl-piperidin-4-yloxy)-3-propyl-pyridazine dihydrochloride]	1190	1540
CN1CCC(Oc2cc(-c3ccc(OCc4ccccc4)cc3)c(C(F)(F)F)nn2)CC1 [Example 13, 4-(4-Benzyloxy-phenyl)-6-(1-methyl-piperidin-4-yloxy)-3-trifluoromethyl-pyridazine dihydrochloride]	2570	2620
CCCCc1nnc(OC2CCN(CCC(=O)OCC)CC2)cc1-c1ccc(OC2CCCCC2)cc1 [Example 15, 3-{4-[6-Butyl-5-(4-cyclohexyloxy-phenyl)-pyridazin-3-yloxy]-piperidin-1-yl}-propionic acid ethyl ester dihydrochloride]	640	660
CCCCc1nnc(OC2CCN(CCC(=O)N(C)C)CC2)cc1-c1ccc(OC2CCCCC2)cc1 [Example 16, 3-{4-[6-Butyl-5-(4-cyclohexyloxy-phenyl)-pyridazin-3-yloxy]-piperidin-1-yl}-N,N-dimethyl-propionamide dihydrochloride]	2170	2070
CCCCc1nnc(OC2CCN(CCO)CC2)cc1-c1ccc(OC2CCCCC2)cc1 [Example 17, 2-{4-[6-Butyl-5-(4-cyclohexyloxy-phenyl)-pyridazin-3-yloxy]-piperidin-1-yl}-ethanol dihydrochloride]	810	820
CCCCc1nnc(OC2CCN(CCC3OCCCO3)CC2)cc1-c1ccc(OC2CCCCC2)cc1 [Example 18, 3-Butyl-4-(4-cyclohexyloxy-phenyl)-6-[1-(2-[1,3]dioxan-2-yl-ethyl)-piperidin-4-yloxy]-pyridazine dihydrochloride]	830	600
CCCCc1nnc(OC2CCN(C)CC2)cc1-c1ccc(OC2CCC(F)(F)CC2)cc1 [Example 19, 3-Butyl-4-[4-(4,4-difluoro-cyclohexyloxy)-phenyl]-6-(1-methyl-piperidin-4-yloxy)-pyridazine dihydrochloride]	640	870
CCCCc1nnc(OC2CCN(CCc3nnc(C)o3)CC2)cc1-c1ccc(OC2CCCCC2)cc1 [Example 20, 3-Butyl-4-(4-cyclohexyloxy-phenyl)-6-{1-[2-(5-methyl-[1,3,4]oxadiazol-2-yl)-ethyl]-piperidin-4-yloxy}-pyridazine dihydrochloride]	1460	2230
CCCCc1nnc(OC2CCN(CCc3nnn(C)n3)CC2)cc1-c1ccc(OC2CCCCC2)cc1 [Example 21, 3-Butyl-4-(4-cyclohexyloxy-phenyl)-6-{1-[2-(2-methyl-2H-tetrazol-5-yl)-ethyl]-piperidin-4-yloxy}-pyridazine dihydrochloride]	1340	1530
CCCCc1nnc(OC2CCN(CC(C)(C)O)CC2)cc1-c1ccc(OC2CCCCC2)cc1 [Example 22, 1-{4-[6-Butyl-5-(4-cyclohexyloxy-phenyl)-pyridazin-3-yloxy]-piperidin-1-yl}-2-methyl-propan-2-ol dihydrochloride]	1380	1120
CCCCc1nnc(OC2CCN(CCOC)CC2)cc1-c1ccc(OC2CCCCC2)cc1 [Example 23, 3-Butyl-4-(4-cyclohexyloxy-phenyl)-6-[1-(2-methoxy-ethyl)-piperidin-4-yloxy]-pyridazine dihydrochloride]	780	1110
CCCCc1nnc(OC2CN3CCC2CC3)cc1-c1ccc(OC2CCCCC2)cc1 (stereo not drawn) [Example 26, 3-[6-Butyl-5-(4-cyclohexyloxy-phenyl)-pyridazin-3-yloxy]-1-azabicyclo[2.2.2]octane dihydrochloride]	2080	1900
CCCCc1nnc(O[C@H]2C[C@H]3CC[C@@H](C2)N3C)cc1-c1ccc(OC2CCCCC2)cc1 [Example 27, endo-3-[6-Butyl-5-(4-cyclohexyloxy-phenyl)-pyridazin-3-yloxy]-8-methyl-8-aza-bicyclo[3.2.1]octane dihydrochloride]	2690	2520
CCCCc1nnc(OC[C@@H]2CCCN3CCCC[C@H]23)cc1-c1ccc(OC2CCCCC2)cc1 [Example 28, (1R,9aR)-1-[6-Butyl-5-(4-cyclohexyloxy-phenyl)-pyridazin-3-yloxymethyl]-octahydroquinolizine dihydrochloride]	1750	1660
CCCCc1nnc(O[C@@H]2CCN(C)C2)cc1-c1ccc(OC2CCCCC2)cc1 [Example 29, 3-Butyl-4-(4-cyclohexyloxy-phenyl)-6-((R)-1-methyl-pyrrolidin-3-yloxy)-pyridazine dihydrochloride]	1720	2360
CCCCc1nnc(O[C@H]2CCN(C)C2)cc1-c1ccc(OC2CCCCC2)cc1 [Example 30, 3-Butyl-4-(4-cyclohexyloxy-phenyl)-6-((S)-1-methyl-pyrrolidin-3-yloxy)-pyridazine dihydrochloride]	1820	2590
CCCCc1nnc(O[C@H]2CC3C[C@@H](O)C(C2)N3C)cc1-c1ccc(OC2CCCCC2)cc1 (stereo partly drawn) [Example 31, (3S,6R)-3-[6-Butyl-5-(4-cyclohexyloxy-phenyl)-pyridazin-3-yloxy]-8-methyl-8-aza-bicyclo[3.2.1]octan-6-ol dihydrochloride]	890	1180
CCCCc1nnc(OCC[C@H]2CCCCN2C)cc1-c1ccc(OC2CCCCC2)cc1 [Example 32, 3-Butyl-4-(4-cyclohexyloxy-phenyl)-6-[2-((R)-1-methyl-piperidin-2-yl)-ethoxy]-pyridazine dihydrochloride]	2780	1780
CCCCc1nnc(OCC[C@@H]2CCCCN2C)cc1-c1ccc(OC2CCCCC2)cc1 [Example 33, 3-butyl-4-(4-cyclohexyloxy-phenyl)-6-[2-((S)-1-methyl-piperidin-2-yl)-ethoxy]-pyridazine dihydrochloride]	2630	1480
CCCCc1nnc(OCC2CN(C)CCO2)cc1-c1ccc(OC2CCCCC2)cc1 (stereo not drawn) [Example 34, 2-[6-Butyl-5-(4-cyclohexyloxy-phenyl)-pyridazin-3-yloxymethyl]-4-methyl-morpholine dihydrochloride]	2930	2580
CCCCc1nnc(O[C@H]2CC[C@H](NC)CC2)cc1-c1ccc(OC2CCCCC2)cc1 [Example 37, {4-[6-Butyl-5-(4-cyclohexyloxy-phenyl)-pyridazin-3-yloxy]-cyclohexyl}-methyl-amine dihydrochloride]	1870	1650
CCCCc1nnc(OC2CCN(C)CC2CO)cc1-c1ccc(OC2CCCCC2)cc1 (stereo not drawn) [Example 38, {4-[6-Butyl-5-(4-cyclohexyloxy-phenyl)-pyridazin-3-yloxy]-1-methyl-piperidin-3-yl}-methanol dihydrochloride]	2620	2470
CCCCc1nnc(OCC2CN(C)CCC2(F)F)cc1-c1ccc(OC2CCCCC2)cc1 (stereo not drawn) [Example 39, 3-Butyl-4-(4-cyclohexyloxy-phenyl)-6-(4,4-difluoro-1-methyl-piperidin-3-ylmethoxy)-pyridazine dihydrochloride]	1220	1500
CCCCc1c(-c2ccc(OC3CCCCC3)cc2)cc(OC2CCN(C)CC2)n[n+]1[O-] [Example 40, 3-Butyl-4-(4-cyclohexyloxy-phenyl)-6-(1-methyl-piperidin-4-yloxy)-pyridazine 2-oxide hydrochloride]	2980	2180
CCCCc1nnc(OCC2(F)CCN(C)CC2)cc1-c1ccc(OC2CCCCC2)cc1 [Example 45, 3-Butyl-4-(4-cyclohexyloxy-phenyl)-6-(4-fluoro-1-methyl-piperidin-4-ylmethoxy)-pyridazine dihydrochloride]	1150	500
